Data on one compound can be found in paper PMC10549826 (Antiviral research, 2023).

Each structure is given as a SMILES string.

Type in all cases: biochemical, influenza A(H3N2) virus
The target of assay [1] is A/Victoria/361/2011 NA with T439R (Q136, T148, R150, R439) (Influenza A virus, UniProt G9LQ08, H150R/T439R).
In assay [2] the target is A/Victoria/361/2011 NA with R150H (Q136, T148, H150, T439) (Influenza A virus, UniProt G9LQ08).
Assay [3] deals with A/Victoria/361/2011 NA with Q136K (K136, T148, R150, T439) (Influenza A virus, UniProt G9LQ08, H150R/Q136K).
In assay [4] the target is A/Victoria/361/2011 NA with T148I (Q136, I148, R150, T439) (Influenza A virus, UniProt G9LQ08, H150R/T148I).

By IC50 is commonly meant the concentration at which inhibition is half-maximal. Read a low IC50 as higher potency. Take `CCC(CC)[C@H](NC(C)=O)[C@@H]1[C@H](O)[C@@H](C(=O)O)C[C@H]1N=C(N)N` [Peramivir, peramivir]: the IC50 in assay [1] turned out to be 240 pM; in assay [2], 80 pM; in assay [3], 560 pM; in assay [4], 90 pM. Besides, the IC50 fold-change in assay [1] is reported as 0.24 ± 0.04 (3) fold; in assay [2], 0.08 ± 0.01 (1) fold; in assay [3] it was 0.56 ± 0.09 (8) fold; in assay [4], 0.09 ± 0.01 (1) fold.
